Measured values: patent publication US9994522B2, “Amorphous form of apremilast” (MAPI PHARMA LTD., priority 2014, dated 2018)

What was measured:
Format in all cases: physicochemical
[1] = Dynamic Vapor Sorption (DVS) / hygroscopicity; conditions: for Change In Mass (%) - ref, Desorption / Change In Mass (%) - ref, Sorption / Change In Mass (%) - ref, Hysteresis: 25° C.
Experimental: Details of DVS method used in the tests are mentioned below: • Samples (about 10 mg) were transferred into a DVS pan, the weight changes were recorded with respect to the atmospheric humidity at 25° C.
The following parameters were used: • Equilibrium: dm/dt: 0.01%/min. (for min: 10 min and max: 180 min). • Drying: 0% RH for 120 min. • RH (%) measurement step: 5%, • RH (%) measurement step scope: 0˜95˜0%.

[2] = Physical stability on storage, XRPD pattern; conditions: for physical stability: 25° C. closed, 25° C./60% RH and 40° C. closed, three months (not 40° C./75% RH)
Experimental: 3.1 XRPD Method • Details of XRPD method used in the tests are mentioned below: • X-ray Generator: Cu, Kα (λ=1.54179 Å). • Tube Voltage: 40 kV; Current: 40 mA. • Scanning Scope: 4 to 40 deg; • Sample rotation speed: 15 rpm. • Scanning rate: 10 deg/min
(§1) About 40 mg of scaled up amorphous sample prepared by solvent-anti-solvent precipitation (addition of water to acetone) as described in Example 6 was weighed into glass vials. The vials were stored under different testing conditions (25° C. closed vial, 25° C./60% RH, 40° C. closed vial and 40° C./75% RH) 1 week, 2 weeks, 4 weeks, and 3 months. The original scaled up amorphous form was used as a control. XRPD and mDSC were checked at the end of each time point.

[3] = Physical stability on storage, appearance
Experimental: as §1

[4] = Physical stability on storage, mDSC
Experimental: Details of mDSC methods used in the tests are mentioned below: • Method I: Amorphous samples (about 1 mg) were run a modulated DSC using Tzero aluminum pans heated from 0° C. to 200° C. at speed of 2° C./min, with modulation temperature amplitude 1.0° C. and modulation 60 s. • Method II: The two-cycle heating mDSC was run using Tzero aluminum hermetic pans with pinhole with first cycle heated from 0° C. to 160° C. at speed of 2° C./min and the second cycle from 0° C. to 260° C. at speed of 2° C./min.
as §1

[5] = DVS Cycle 1, target 10.0 % P/Po
[6] = DVS Cycle 1, target 15.0 % P/Po
[7] = DVS Cycle 1, target 20.0 % P/Po
[8] = DVS Cycle 1, target 25.0 % P/Po
[9] = DVS Cycle 1, target 30.0 % P/Po
[10] = DVS Cycle 1, target 35.0 % P/Po
[11] = DVS Cycle 1, target 40.0 % P/Po
[12] = DVS Cycle 1, target 45.0 % P/Po
[13] = DVS Cycle 1, target 50.0 % P/Po
[14] = DVS Cycle 1, target 55.0 % P/Po
[15] = DVS Cycle 1, target 60.0 % P/Po
[16] = DVS Cycle 1, target 65.0 % P/Po
[17] = DVS Cycle 1, target 70.0 % P/Po
[18] = DVS Cycle 1, target 75.0 % P/Po
[19] = DVS Cycle 1, target 80.0 % P/Po
[20] = DVS Cycle 1, target 85.0 % P/Po
[21] = DVS Cycle 1, target 90.0 % P/Po
[22] = DVS Cycle 1, target 95.0 % P/Po
[23] = stored 25° C. Closed, 3rd month
[24] = stored 25° C./60% RH, 3rd month
[25] = stored 40° C. Closed, 3rd month
[26] = stored 40° C./75% RH, 3rd month

## CCOc1cc([C@@H](CS(C)(=O)=O)N2C(=O)c3cccc(NC(C)=O)c3C2=O)ccc1OC [amorphous apremilast, N-[2-[(1S)-1-(3-ethoxy-4-methoxyphenyl)-2-(methylsulfonyl)ethyl]-2,3-dihydro-1,3-dioxo-1H-isoindol-4-yl]acetamide]
[1]; DVS Cycle 1, target 0.0 % P/Po
  Change In Mass (%) - ref, Desorption: −0.066%
  Change In Mass (%) - ref, Sorption: −0.010%
[1]; DVS Cycle 1, target 5.0 % P/Po
  Change In Mass (%) - ref, Desorption: 0.138%
  Change In Mass (%) - ref, Hysteresis: −0.045%
  Change In Mass (%) - ref, Sorption: 0.183%
[1]; [5]
  Change In Mass (%) - ref, Desorption: 0.308%
  Change In Mass (%) - ref, Hysteresis: −0.006%
  Change In Mass (%) - ref, Sorption: 0.314%
[1]; [6]
  Change In Mass (%) - ref, Desorption: 0.463%
  Change In Mass (%) - ref, Hysteresis: 0.030%
  Change In Mass (%) - ref, Sorption: 0.434%
[1]; [7]
  Change In Mass (%) - ref, Desorption: 0.606%
  Change In Mass (%) - ref, Hysteresis: 0.066%
  Change In Mass (%) - ref, Sorption: 0.540%
[1]; [8]
  Change In Mass (%) - ref, Desorption: 0.740%
  Change In Mass (%) - ref, Hysteresis: 0.107%
  Change In Mass (%) - ref, Sorption: 0.633%
[1]; [9]
  Change In Mass (%) - ref, Desorption: 0.860%
  Change In Mass (%) - ref, Hysteresis: 0.131%
  Change In Mass (%) - ref, Sorption: 0.730%
[1]; [10]
  Change In Mass (%) - ref, Desorption: 0.976%
  Change In Mass (%) - ref, Hysteresis: 0.155%
  Change In Mass (%) - ref, Sorption: 0.821%
[1]; [11]
  Change In Mass (%) - ref, Desorption: 1.090%
  Change In Mass (%) - ref, Hysteresis: 0.181%
  Change In Mass (%) - ref, Sorption: 0.909%
[1]; [12]
  Change In Mass (%) - ref, Desorption: 1.203%
  Change In Mass (%) - ref, Hysteresis: 0.200%
  Change In Mass (%) - ref, Sorption: 1.003%
[1]; [13]
  Change In Mass (%) - ref, Desorption: 1.311%
  Change In Mass (%) - ref, Hysteresis: 0.224%
  Change In Mass (%) - ref, Sorption: 1.087%
[1]; [14]
  Change In Mass (%) - ref, Desorption: 1.411%
  Change In Mass (%) - ref, Hysteresis: 0.238%
  Change In Mass (%) - ref, Sorption: 1.173%
[1]; [15]
  Change In Mass (%) - ref, Desorption: 1.514%
  Change In Mass (%) - ref, Hysteresis: 0.250%
  Change In Mass (%) - ref, Sorption: 1.263%
[1]; [16]
  Change In Mass (%) - ref, Desorption: 1.619%
  Change In Mass (%) - ref, Hysteresis: 0.258%
  Change In Mass (%) - ref, Sorption: 1.360%
[1]; [17]
  Change In Mass (%) - ref, Desorption: 1.730%
  Change In Mass (%) - ref, Hysteresis: 0.270%
  Change In Mass (%) - ref, Sorption: 1.460%
[1]; [18]
  Change In Mass (%) - ref, Desorption: 1.836%
  Change In Mass (%) - ref, Hysteresis: 0.338%
  Change In Mass (%) - ref, Sorption: 1.498%
[1]; [19]
  Change In Mass (%) - ref, Desorption: 1.940%
  Change In Mass (%) - ref, Hysteresis: 0.306%
  Change In Mass (%) - ref, Sorption: 1.634%
[1]; [20]
  Change In Mass (%) - ref, Desorption: 1.972%
  Change In Mass (%) - ref, Hysteresis: 0.208%
  Change In Mass (%) - ref, Sorption: 1.763%
[1]; [21]
  Change In Mass (%) - ref, Desorption: 1.956%
  Change In Mass (%) - ref, Hysteresis: 0.122%
  Change In Mass (%) - ref, Sorption: 1.834%
[1]; [22]
  Change In Mass (%) - ref, Desorption: 1.883%
  Change In Mass (%) - ref, Sorption: 1.883%
[1]; based on DVS data, criterion at 25 ± 1° C. and 80 ± 2% RH
  Hygroscopicity Classification: slightly hygroscopic
[2]
  physical stability: good physical stability
[2]; listed as Apremilast
  physical stability: stable for three months
[2]; Initial
  XRPD Pattern: Amorphous
[2]; stored 25° C. Closed, 1st week
  XRPD Pattern: Amorphous
[2]; stored 25° C. Closed, 2nd week
  XRPD Pattern: Amorphous
[2]; [23]
  XRPD Pattern: Amorphous
[2]; stored 25° C. Closed, 4th week
  XRPD Pattern: Amorphous
[2]; stored 25° C./60% RH, 1st week
  XRPD Pattern: Amorphous
[2]; stored 25° C./60% RH, 2nd week
  XRPD Pattern: Amorphous
[2]; [24]
  XRPD Pattern: Amorphous
[2]; stored 25° C./60% RH, 4th week
  XRPD Pattern: Amorphous
[2]; stored 40° C. Closed, 1st week
  XRPD Pattern: Amorphous
[2]; stored 40° C. Closed, 2nd week
  XRPD Pattern: Amorphous
[2]; [25]
  XRPD Pattern: Amorphous
[2]; stored 40° C. Closed, 4th week
  XRPD Pattern: Amorphous
[2]; stored 40° C./75% RH, 1st week
  XRPD Pattern: Amorphous
[2]; stored 40° C./75% RH, 2nd week
  XRPD Pattern: Amorphous
[2]; [26]
  XRPD Pattern: Amorphous
[2]; stored 40° C./75% RH, 4th week
  XRPD Pattern: Amorphous
[2]; stored 40° C./75% RH, after three months
  small spike in the XRPD: 13.5 degrees two theta [2θ°]
[3]; Initial
  Appearance: Light Yellow
[3]; stored 25° C. Closed, 1st week
  Appearance: Light
[3]; stored 25° C. Closed, 2nd week
  Appearance: Light
[3]; [23]
  Appearance: Light
[3]; stored 25° C. Closed, 4th week
  Appearance: Light
[3]; stored 25° C./60% RH, 1st week
  Appearance: Light
[3]; stored 25° C./60% RH, 2nd week
  Appearance: Light
[3]; [24]
  Appearance: Light
[3]; stored 25° C./60% RH, 4th week
  Appearance: Light
[3]; stored 40° C. Closed, 1st week
  Appearance: Light
[3]; stored 40° C. Closed, 2nd week
  Appearance: Light
[3]; [25]
  Appearance: Light
[3]; stored 40° C. Closed, 4th week
  Appearance: Light
[3]; stored 40° C./75% RH, 1st week
  Appearance: Light
[3]; stored 40° C./75% RH, 2nd week
  Appearance: Light
[3]; stored 40° C./75% RH, 3rd month, listed as Amorphous Apremilast
  Appearance: Darken
[3]; stored 40° C./75% RH, 3rd month, listed as apremilast
  Appearance: changed from light yellow to darkened yellow
[3]; stored 40° C./75% RH, 4th week
  Appearance: Light
[4]; Initial
  Tg of mDSC (first glass transition temperature): 77.7 °C
  Tg of mDSC (second glass transition temperature): 133.5 °C
[4]; all testing conditions, up to end of the third month
  change of first glass transition temperature (77.7° C.) on storage: did not change significantly
[4]; different testing conditions, first week and second week
  change of second glass transition temperature (133.6° C.) on storage: changed irregularly and even disappeared
[4]; stored 25° C. (closed), 40° C. (closed) and 25° C./60% RH for three months
  heat of fusion peak related to crystalline conversion: No heat of fusion peak related to crystalline conversion
[4]; stored 25° C. Closed, 1st week
  Tg of mDSC (first glass transition temperature): 77.7 °C
[4]; stored 25° C. Closed, 2nd week
  Tg of mDSC (first glass transition temperature): 78.5 °C
  Tg of mDSC (second glass transition temperature): 181.3 °C
[4]; [23]
  Tg of mDSC (first glass transition temperature): 79.0 °C
[4]; stored 25° C. Closed, 4th week
  Tg of mDSC (first glass transition temperature): 78.2 °C
[4]; stored 25° C./60% RH, 1st week
  Tg of mDSC (first glass transition temperature): 78.4 °C
  Tg of mDSC (second glass transition temperature): 171.4 °C
[4]; stored 25° C./60% RH, 2nd week
  Tg of mDSC (first glass transition temperature): 78.8 °C
[4]; [24]
  Tg of mDSC (first glass transition temperature): 79.9 °C
[4]; stored 25° C./60% RH, 4th week
  Tg of mDSC (first glass transition temperature): 78.9 °C
[4]; stored 40° C. Closed, 1st week
  Tg of mDSC (first glass transition temperature): 79.1 °C
[4]; stored 40° C. Closed, 2nd week
  Tg of mDSC (first glass transition temperature): 79.7 °C
  Tg of mDSC (second glass transition temperature): 170.4 °C
[4]; [25]
  Tg of mDSC (first glass transition temperature): 83.9 °C
[4]; stored 40° C. Closed, 4th week
  Tg of mDSC (first glass transition temperature): 81.1 °C
[4]; stored 40° C./75% RH, 1st week
  Tg of mDSC (first glass transition temperature): 77.5 °C
  Tg of mDSC (second glass transition temperature): 105.9 °C
[4]; stored 40° C./75% RH, 2nd week
  Tg of mDSC (first glass transition temperature): 77.8 °C
  Tg of mDSC (second glass transition temperature): 174.5 °C
[4]; [26]
  Tg of mDSC (first glass transition temperature): 77.7 °C
[4]; stored 40° C./75% RH, 4th week
  Tg of mDSC (first glass transition temperature): 78.0 °C
[4]; stored 40° C./75% RH, third month
  sharp endothermic peak on mDSC (related to melting point of the crystalline form): 153.4 °C
